Counter-ions that a name gives are not always drawn. Like-named read-outs stand apart in the source and are kept apart here.
Legend:
[1] = target: menin/MLL (terbium chelate-labeled menin, FITC-MBM1 peptide) (Homo sapiens (Human), UniProt O00255); test: Menin/MLL homogenous time-resolved fluorescence (HTRF) assay; format: binding;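 note: IC50 from percent inhibition of HTRF signal, normalized between wells without competitor and wells with a saturating competitor that displaces FITC-MBM1 from His-tagged menin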
MOLM14 cells = test: Proliferation assay (spheroid growth, 8 days), MOLM14; format: cell-based, human; conditions: MOLM14, 8 days, read-out: spheroid assay_OneTime MOLM14 IC50;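 note: spheroid size read as confluence by live-cell imaging, compounds added at a range of concentrations with 0.3% DMSO, DMSO-treated wells = 0%, highest reference dose = low control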
OCI-AML3 cells = test: Proliferation assay (spheroid growth, 8 days), OCI-AML3; format: cell-based, human; conditions: OCI-AML3, 8 days
Method: (§1) The anti-proliferative effect of menin/MLL protein/protein interaction inhibitor test compounds was assessed in human leukemia cell lines. The cell line MOLM14 harbors a MLL translocation and expresses the MLL fusion protein MLL-AF9, respectively, as well as the wildtype protein from the second allele. OCI-AML3 cells that carry the NPM1c gene mutation were also tested. […] KO-52 was used as a control cell line containing two MLL (KMT2A) wildtype alleles in order to exclude compounds that display general cytotoxic effects.
(§2) KO-52 and OCI-AML3 cell lines were propagated in alpha-MEM (Sigma Aldrich) supplemented with 20% heat-inactivated fetal bovine serum (HyClone), 2 mM L-glutamine (Sigma Aldrich) and 50 μg/ml gentamycin (Gibco).
(§3) In order to assess the anti-proliferative effects, 200 MOLM14 cells, 200 OCI-AML3 cells or 300 KO-52 cells were seeded in 200 μl media per well in […] round bottom, ultra-low attachment plates (Costar, catalogue number 7007). Cell seeding numbers were chosen based on growth curves to ensure linear growth throughout the experiment. Test compounds were added at different concentrations and the DMSO content was normalized to 0.3%. Cells were incubated for 8 days at 37° C. and 5% CO2. Spheroid like growth was measured in real-time by live-cell imaging (IncuCyteZOOM, Essenbio, 4× objective) acquiring images at day 8. Confluence (%) as a measure of spheroid size was determined using an integrated analysis tool.
(§4) In order to determine the effect of the test compounds over time, the confluence in each well as a measure of spheroid size, was calculated. Confluence of the highest dose of a reference compound was used as baseline for the LC (Low control) and the confluence of DMSO treated cells was used as 0% cytotoxicity (High Control, HC).
(§5) GraphPad Prism(version 7.00) was used to calculate the IC50. Dose-response equation was used for the plot of % Effect vs Log 10 compound concentration with a variable slope and fixing the maximum to 100% and the minimum to 0%.

KO-52 cells = test: Proliferation assay (spheroid growth, 8 days), KO-52 control cell line; format: cell-based, human; conditions: read-out: spheroid assay_OneTime KO-52 IC50
Method: as §1, §2, §3, §4, §5

MEIS1 mRNA = MEIS1 mRNA expression assay (Quantigene Singleplex) in MOLM14 cells; format: cell-based, human; conditions: 48 hours incubation;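 note: MEIS1 transcript levels read by probe hybridization and normalized to RPL28 mRNA, with IC50 fitted to fold changes across a rising compound concentration series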
[2] = HTRF-30 min incubation IC50, 30 min incubation

Chain of menin/MLL (terbium chelate-labeled menin, FITC-MBM1 peptide) (O00255 other isoform, or with tags, fused parts or gaps): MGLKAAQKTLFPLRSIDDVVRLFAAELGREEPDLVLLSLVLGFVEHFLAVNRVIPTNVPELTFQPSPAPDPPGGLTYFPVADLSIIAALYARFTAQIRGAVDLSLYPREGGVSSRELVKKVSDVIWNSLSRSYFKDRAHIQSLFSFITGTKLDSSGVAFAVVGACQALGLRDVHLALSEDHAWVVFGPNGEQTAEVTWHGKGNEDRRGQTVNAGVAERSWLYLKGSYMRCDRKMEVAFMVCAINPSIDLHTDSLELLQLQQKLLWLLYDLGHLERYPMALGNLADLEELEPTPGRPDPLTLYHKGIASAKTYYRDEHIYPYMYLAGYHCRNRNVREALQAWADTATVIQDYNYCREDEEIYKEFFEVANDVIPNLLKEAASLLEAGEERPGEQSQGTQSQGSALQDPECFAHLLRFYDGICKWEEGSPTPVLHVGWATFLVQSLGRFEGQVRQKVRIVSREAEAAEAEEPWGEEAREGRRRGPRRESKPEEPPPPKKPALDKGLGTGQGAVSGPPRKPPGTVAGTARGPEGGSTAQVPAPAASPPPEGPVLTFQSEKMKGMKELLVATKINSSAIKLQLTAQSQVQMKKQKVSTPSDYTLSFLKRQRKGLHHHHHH

Structure (SMILES)	IC50 [1, 2] [nM]	IC50 (MOLM14 cells; Homo sapiens, MOLM-14, […]) [nM]	IC50 (OCI-AML3 cells; Homo sapiens, OCI-AML-3, […]) [nM]	IC50 (KO-52 cells; Homo sapiens, […]) [nM]	IC50 (MEIS1 mRNA; Homo sapiens, MOLM-14, 48 h) [nM]	IC50 (MOLM14 cells) [nM]	IC50 (OCI-AML3 cells) [nM]	IC50 ([1]; read-out: HTRF-30 min incubation IC50, 30 min incubation) [nM]	IC50 (KO-52 cells) [nM]	IC50 (MEIS1 mRNA) [nM]
CCN(C(=O)c1cc(F)ccc1Oc1nncnc1N1CCC2(C1)CN([C@H](CCCN(CCOC)CCOC)C(C)C)C2)C(C)C [Compound 90, (R)-2-((5-(2-(6-(bis(2-methoxyethyl)amino)-2-methylhexan-3-yl)-2,6-diazaspiro[3.4]octan-6-yl)-1,2,4-triazin-6-yl)oxy)-N-ethyl-5-fluoro-N-isopropylbenzamide formate]	0.16	40	190	1000	–	–	–	–	–	–
CC(C)[C@@H](CCC(N)=O)N1CC2(CCN(c3ncnnc3Oc3ccc(F)cc3-c3cncnc3C3CC3)C2)C1 (single isomer, unassigned) [Compound 43, (*R)-4-(6-(6-(2-(4-cyclopropylpyrimidin-5-yl)-4-fluorophenoxy)-1,2,4-triazin-5-yl)-2,6-diazaspiro[3.4]octan-2-yl)-5-methylhexanamido]	0.55	290	1200	> 15000	~240	–	–	–	–	–
CCN(C(=O)c1cc(F)ccc1Oc1nncnc1N1CCC2(C1)CN([C@H](CCCN(C)[C@H](C)COC)C(C)C)C2)C(C)C [Compound 154, N-ethyl-5-fluoro-N-isopropyl-2-((5-(2-((R)-6-(((R)-1-methoxypropan-2-yl)(methyl)amino)-2-methylhexan-3-yl)-2,6-diazaspiro[3.4]octan-6-yl)-1,2,4-triazin-6-yl)oxy)benzamide fumarate]	0.051	22	67	> 15000	27	–	–	–	–	–
CCN(C(=O)c1cc(F)ccc1Oc1nncnc1N1CCC2(C1)CN([C@H](CCCN[C@@H](CO)COC)C(C)C)C2)C(C)C [Compound 163, N-ethyl-5-fluoro-2-((5-(2-((R)-6-(((S)-1-hydroxy-3-methoxypropan-2-yl)amino)-2-methylhexan-3-yl)-2,6-diazaspiro[3.4]octan-6-yl)-1,2,4-triazin-6-yl)oxy)-N-isopropylbenzamide]	0.089	18	120	> 15000	20	–	–	–	–	–
CCN(C(=O)c1cc(F)ccc1Oc1nncnc1N1CCC2(C1)CN([C@H](CCCN(C)CCOC)C(C)C)C2)C(C)C [Compound 27, (R)-N-ethyl-5-fluoro-N-isopropyl-2-((5-(2-(6-((2-methoxyethyl)(methyl)amino)-2-methylhexan-3-yl)-2,6-diazaspiro[3.4]octan-6-yl)-1,2,4-triazin-6-yl)oxy)benzamide]	–	–	91	6850	–	–	–	–	–	–
CCN(C(=O)c1cc(F)ccc1Oc1nncnc1N1CCC2(C1)CN([C@H](CCNC(C)C)C(C)C)C2)C(C)C (single isomer, unassigned) [Compound 229, (*R)—N-ethyl-5-fluoro-N-isopropyl-2-((5-(2-(1-(isopropylamino)-4-methylpentan-3-yl)-2,6-diazaspiro[3.4]octan-6-yl)-1,2,4-triazin-6-yl)oxy)benzamide fumarate]	0.37	320	870	> 15000	360	–	–	–	–	–
CC(C)[C@@H](CCCN(C)C[C@H](C)C(N)=O)N1CC2(CCN(c3ncnnc3Oc3ccc(F)cc3C(=O)N(C(C)C)C(C)C)C2)C1 (single isomer, unassigned) [Compound 205, 2-((5-(2-((*R)-6-(((S)-3-amino-2-methyl-3-oxopropyl)(methyl)amino)-2-methylhexan-3-yl)-2,6-diazaspiro[3.4]octan-6-yl)-1,2,4-triazin-6-yl)oxy)-5-fluoro-N,N-diisopropylbenzamide fumarate]	0.21	29	43	> 15000	35	–	–	–	–	–
CCN(C(=O)c1cc(F)ccc1Oc1nncnc1N1CCC2(C1)CN(C(C(C)C)C(C)CCN(C)CCOC)C2)C(C)C (single isomer, unassigned) [Compound 266, N-ethyl-5-fluoro-N-isopropyl-2-((5-(2-(6-((2-methoxyethyl)(methyl)amino)-2,4-dimethylhexan-3-yl)-2,6-diazaspiro[3.4]octan-6-yl)-1,2,4-triazin-6-yl)oxy)benzamide (mixture of R,R and S,S; or mixture of R,S and S,R) fumarate]	0.92	–	–	> 15000	39	29	49	–	–	–
CCN(C(=O)c1cc(F)ccc1Oc1nnccc1N1CCC2(C1)CN([C@H](CCCN(C)C)C(C)C)C2)C(C)C (single isomer, unassigned) [Compound 77, (*R)-2-((4-(2-(6-(dimethylamino)-2-methylhexan-3-yl)-2,6-diazaspiro[3.4]octan-6-yl)pyridazin-3-yl)oxy)-N-ethyl-5-fluoro-N-isopropylbenzamide]	–	–	–	–	–	100	1320	0.51	13700	120
CCN(C(=O)c1cc(F)ccc1Oc1nncnc1N1CCC2(C1)CN([C@H](CCNCCCO)C(C)C)C2)C(C)C (single isomer, unassigned) [Compound 273, (*R)—N-ethyl-5-fluoro-2-((5-(2-(1-((3-hydroxypropyl)amino)-4-methylpentan-3-yl)-2,6-diazaspiro[3.4]octan-6-yl)-1,2,4-triazin-6-yl)oxy)-N-isopropylbenzamide]	0.21	390	830	> 15000	~390	–	–	–	–	–
CC(C)[C@H](CCCN(C)C)N1CC2(CCN(c3ncnnc3Oc3ccc(F)cc3C(=O)N(C(C)C)C(C)C)C2)C1 (single isomer, unassigned) [Compound 103, (*S)-2-((5-(2-(6-(dimethylamino)-2-methylhexan-3-yl)-2,6-diazaspiro[3.4]octan-6-yl)-1,2,4-triazin-6-yl)oxy)-5-fluoro-N,N-diisopropylbenzamide fumarate]	2.43	290	1360	> 15000	420	–	–	–	–	–
CCN(C(=O)c1cc(F)ccc1Oc1nncnc1N1CCC2(C1)CN([C@H](CCCN(C)C[C@H](C)C(=O)NC)C(C)C)C2)C(C)C [Compound 197, N-ethyl-5-fluoro-N-isopropyl-2-((5-(2-((R)-2-methyl-6-(methyl((S)-2-methyl-3-(methylamino)-3-oxopropyl)amino)hexan-3-yl)-2,6-diazaspiro[3.4]octan-6-yl)-1,2,4-triazin-6-yl)oxy)benzamide fumarate]	0.3	45	36	> 15000	36	–	–	–	–	–
CCN(C(=O)c1cc(F)ccc1Oc1nnccc1N1CCC2(C1)CN([C@@H](CCCN(C)CCOC)C(C)C)C2)C(C)C (single isomer, unassigned) [Compound 84, (*S)—N-ethyl-5-fluoro-N-isopropyl-2-((4-(2-(6-((2-methoxyethyl)(methyl)amino)-2-methylhexan-3-yl)-2,6-diazaspiro[3.4]octan-6-yl)pyridazin-3-yl)oxy)benzamide oxalate]	–	> 940	7170	> 15000	> 1000	–	–	–	–	–
CCN(C(=O)c1cc(F)ccc1Oc1nncnc1N1CCC2(C1)CN([C@@H](CCCN(C)CCOC)C(C)C)C2)C(C)C [Compound 28, (S)—N-ethyl-5-fluoro-N-isopropyl-2-((5-(2-(6-((2-methoxyethyl)(methyl)amino)-2-methylhexan-3-yl)-2,6-diazaspiro[3.4]octan-6-yl)-1,2,4-triazin-6-yl)oxy)benzamide]	–	600	1360	> 15000	–	–	–	–	–	–
CCN(C(=O)c1cc(F)ccc1Oc1nnc(Cl)nc1N1CCC2(C1)CN([C@H](CCCN(C)CCOC)C(C)C)C2)C(C)C [Compound 394, (R)-2-((3-chloro-5-(2-(6-((2-methoxyethyl)(methyl)amino)-2-methylhexan-3-yl)-2,6-diazaspiro[3.4]octan-6-yl)-1,2,4-triazin-6-yl)oxy)-N-ethyl-5-fluoro-N-isopropylbenzamide fumarate]	–	110	330	> 15000	–	–	–	–	–	–
CCN(C(=O)c1cc(F)ccc1Oc1nncnc1N1CCC2(C1)CN([C@H](CCCN(C)CC(C)OC)C(C)C)C2)C(C)C (single isomer, unassigned) [Compound 254, oxalate]	4.16	590	4690	> 15000	–	–	–	–	–	–
